System: Nanjungud rasbale banana
Assay: Ripening of banana: NO donors versus hypoxia-induced NO
Type: in vivo
Details: SNAP 100 μM, chitosan 1%
Experimental: Effects of using hypoxia-induced NO on fruit ripening were tested against the available NO donors such as SNP (Sodium nitroprusside), SNAP (S-Nitroso-N-acetyl-dl-penicillamine), chitosan on Nanjungud rasbale banana. Physiological concentrations of NO donors were used and the concentration for SNP used was 1 mM, SNAP was used in a concentration of 100 μM, chitosan was used in a concentration of 1%. Out of all the treatments, hypoxia-induced NO yielded better results where a significant delay of ripening was observed (Table-1). SNP and chitosan were effective up to 2 days but later they were ineffective on delaying ripening. Even after 3 days of treatment only one fruit ripened in the presence of formula in comparison to other treatments where 60% of fruits were ripened (FIG. 10). […] It was observed that the delay in ripening of bananas by the method of the present disclosure was 7 days as compared to the bananas which were not treated by the method of the present disclosure.

Compound: CC(=O)NC(C(=O)O)C(C)(C)SN=O (racemic) [SNAP, S-Nitroso-N-acetyl-dl-penicillamine]
- Number of fruits ripened (Day 0, SNP 1 mM): 0
- Number of fruits ripened (Day 1, SNP 1 mM): 0
- Number of fruits ripened (Day 2, SNP 1 mM): 2
- Number of fruits ripened (Day 3, SNP 1 mM): 4
